Data from patent US6017958A, “Method of treating malignant tumors with thyroxine analogues having no significant hormonal activity” (Octamer, Inc., priority 1997, dated 2000).
“Also recorded” adds a separate entry of the source. Read-outs that look alike come from different tables or passages of the source.

Key:
[1] = system: biosynthetic pathways of DNA, RNA or proteins; assay: Metabolic action and biosynthetic pathways
[2] = system: T47D (ductal mammary cancer); assay: Cytocidal action/growth inhibition, T47D; type: cell-based; settings: Homo sapiens, 72 h
Description: (§1) Seven human cancer cell lines were obtained from the American Tissue Culture Collection (Rockville, Md.) and maintained in the recommended growth media. Cells were seeded into wells (2 cm^2) at a density of 2×10^4 cells/cm^2. Various concentrations of Compounds 1-13 were added to the media at the time of seeding.
(§2) The cultures were incubated for 72 hours at 37° C. (5% CO2 atmosphere). Following incubation, cells were detached with trypsin and counted in a hemocytometer.
(§3) I100 designates the concentration at which no viable cells remained; I50 the concentration at which 50% viable cells remained, as compared to a control.
(§4) E-ras 20 cells were cultured as reported, Bauer et al., 1996, "Modification of growth related enzymatic pathways and apparent loss of tumorigenicity of a ras-transformed bovine endothelial cell line by treatment with 5-iodo-6-amino-1,2-benzopyrone (INH2 BP)" Intl. J. Oncol. 8:239-252; HT-144 (melanoma), DU-145 (prostatic cancer), HeLa (cervical cancer), HL 60 (promyelocytic leukemia), MDA-MB-231 (mammary cancer), SK-Br-3 (mammary cancer), T47D (ductal mammary cancer), A559 (lung cancer) were obtained from American Type Culture Collection (Rockville, Md.) and cultured in prescribed media. The effect of DIME was tested in cultures with a starting cell density of 2×10^4 cells per cm^2 and comparison of the effect of DIME on cell growth (intact cells identified by Trypan blue exclusion) was assayed by direct cell counting after trypsinization in a hemocytometer 72 hours after drug addition.
For DIME-exposure experiments cells were seeded into 2 cm^2 wells at a density of 2×10^4 cells/cm^2. DIME at various concentrations was added to the medium at the time of seeding. The cell cultures were then incubated for 3 days (37° C. in 5% at CO2 atmosphere).

[3] = system: MDA-MB-231 xenografts; settings: cited from earlier work
[4] = system: seven human cancer cell lines; assay: Cytocidal action on human cancer cell lines; type: cell-based
Description: as §1, §2

[5] = system: HL-60 (promyelocytic leukemia); assay: Cytocidal action/growth inhibition, HL-60; type: cell-based; settings: Homo sapiens, 72 h
Description: as §1, §2, §3
as §4, with “The effect of DIME was tested in cultures with a starting cell density of 2×10^4 cells per cm^2 and comparison of the effect of DIME on cell growth (intact cells identified by Trypan blue exclusion) was assayed by direct cell counting after trypsinization in a hemocytometer 72 hours after drug addition.” left out

[6] = In vivo toxicity; set-up: species or system mouse
Description: Ten nude mice were administered a daily oral dose of ^14 C-labeled DIME (Compound 1) (1.0 g/kg, 0.1 mL in corn oil) for a period of 12-15 days.

[7] = system: DIME-esterase; assay: Esterase cleavage of DIME in tissue homogenates; type: in vitro ADME; settings: mouse tissue homogenates
Description: (a) mouse tissue homogenate (brain, kidney, liver lung) consisting of 0.2 g of tissue in 1.0 ml. of homogenization buffer (50 mM Tris (pH 7.4), 400 mM NaCl, 10 mM MgCl2, 1 mM EDTA, 0.5% NP-40, 0.5 mM PMSF) each were combined with 1.0 ml of MES buffer (100 mM ph 6.5) containing 20 μM [^14 C]-DIME (10.55 mCi/mmol), and the mixtures were incubated at 37° C. for 4 hours. Then to each tube was added sequentially ethyl acetate (1.5 ml), ammonium sulfate (900 mg) and 60% perchloric acid (160 μl), with vortexing after each addition. After standing for 10 minutes, phase separation was enhanced by benchtop centrifugation. The upper (ethyl acetate) layer was drawn off, and the lower aqueous and interphase material was extracted with a second portion of ethyl acetate (1.5 ml). The ethyl acetate extracts (combined) contained more than 90% of the total cpm present in the original incubate (ca. 4×10^5 cpm). The extracts were evaporated to dryness using a stream of N^2, the respective residues taken up in ethyl acetate (100 μl) and aliquots (10 μl) spotted on analytical silica-gel TLC plates (Whatman PE SIL G/UV flexible plates 250 μm thickness, 10 cm×20 cm) and developed with 3:1:0.8 v:v:v n-hexane/ethyl acetate/ethanol. Analyte bands, including [^14 C]-DIME as reference standard, were visualized by autoradiography. […]
radioactivity of the [^14 C]-DIME was 20,470 cpm/nmol.

[8] = system: A-549 cells; assay: DIME action on A-549 cells with esterase inhibitor BNPP; type: cell-based, human; settings: with bis[p-nitrophenyl] phosphate
[9] = system: MDA-MB-231 cells; assay: Immunocytochemistry of mitotic spindle and spindle-associated proteins; type: cell-based, human; settings: 18 hrs
Description: Cells were fixed in methanol at -20° C. for 5 min. The primary antibody was mouse monoclonal anti-beta tubulin (Amersham) and secondary antibody from goat, conjugated to fluorescein isothiocyanate from Cappel (Durham, N.C., USA). The DNA of nuclei was stained by 10 min of incubation in 0.05 μg/ml 4'-6-diamidono-2-phenylindole (DAPI). Stained cells were viewed with either a Zeiss 40xPlan-Neofluar or a Nikon 60xPlanApo objective. For classification of cells in the mitotic phase, prophase and metaphase were combined into a single category, because it was difficult to distinguish late prophase from metaphase.
In preliminary studies (data not shown) we have also studied the behavior of certain spindle-associated proteins by the immunocytologic technique.

[10] = 0.25 to 1.0 g/kg daily per os; cited from earlier work
[11] = system: Rana pipiens tadpoles; settings: tadpole metamorphosis; cited from earlier work
[12] = Table 4, read-out: I100 (no viable cells remained)

SMILES: COC(=O)c1cc(I)c(Oc2ccc(OC)cc2)c(I)c1 [Compound 1, Methyl 3,5-diiodo-4-(4'-methoxyphenoxy)benzoate]
- inhibition of biosynthetic pathways of DNA, RNA or proteins [1]: nor does it inhibit the biosynthetic pathways of DNA, RNA or proteins
- metabolic action [1]: no metabolic action
- IC50 ([2]; Table 4, read-out: I50): 700 nM
- IC100 [2, 12]: 3.5 µM
- IC50 ([2]; day 3, Table 11, read-out: I50 (day 3)): 700 nM
- dose-response of antitumor effect ([3]; 0.25 g/kg and 1.0 g/kg): had the same antitumor effect
- tumor regression ([3]; 25-35 days, 0.25 to 1.0 g/kg daily per os, nude mice (Kun et al., 1996)): 70-85%
- cytocidal action ([4]; 72 hours): maximally active
- activity in cellular assays and in vivo ([4]; cellular assays and in vivo): highly active
- IC50 ([5]; Table 4, read-out: I50): 600 nM
- IC100 [5, 12]: 3 µM
- ill effects ([6]; 1.0 g/kg daily oral, 12-15 days, nude mice, listed as DIME): No ill effects were observed; also recorded: produced no ill effects
- macroscopically observed toxicity in vivo ([6]; in vivo): no macroscopically observed toxicity in vivo
- DIME-esterase activity [7]: highest rate of "DIME-esterase" activity occurred in brain homogenates
- cell killing with esterase inhibition [8]: much more effective cell killing
- mitotic spindle / tubulin distribution ([9]; 1 μM): striking abnormalities of-tubulin distribution
- Cyclin B-microtubule-spindle association ([9]; 1 μM, data not shown): remained unchanged
- cdc-2 kinase-spindle binding ([9]; 1 μM, data not shown): induction of cdc-2-kinase-spindle binding
- number of centrosomes ([9]; 1 μM, data not shown): unable to detect abnormal number of centrosomes
- pericentrin staining pattern ([9]; 1 μM, data not shown): did not alter the pattern of staining
- protein phosphatase 2a-spindle association ([9]; 1 μn (so in the source), data not shown): not influenced by drug-treatment
- noticeable toxicity [10]: no noticeable toxicity
- metamorphosis / cell differentiating activity [11]: no significant metabolic or cell differentiating activity
